From patent US12180252B2, “Peptide derived from PEP27 peptide and uses thereof” (priority 2021, dated 2024)
In brackets after ≈: the same amount, converted by molar mass. Where a SMILES comes first, the peptide text is derived from it.

How the values were obtained:
[1] = Calcein release from LUVs; conditions: P/L ratio of 0.05
Procedure: To examine the mechanism of action of PEP27 and PEP27-2, we evaluated the changes in bacterial cell membrane permeability by monitoring the release of calcein, a fluorescent marker, from calcein entrapped LUVs with different lipid bilayer compositions.
Peptide-induced membrane permeabilization was quantified by monitoring calcein release from LUVs (n=3 per condition). Different calcein-entrapped LUVs [PE/PG (7/3) or PC/CH/SM (1/1/1)] were prepared as described above, except that the dry lipid films were resuspended in 1 mL of PBS (pH 7.2) containing 70 mM calcein. Gel filtration chromatography on a Sephadex G-50 column was performed to separate free calcein from that entrapped in LUVs. Thereafter, the LUVs with entrapped calcein were mixed with peptides at various ratios, and the fluorescence of the released calcein was measured with a SpectraMax M3 Multi-Mode Microplate Reader (Molecular Devices, Sunnyvale, CA, USA) at excitation and emission wavelengths of 480 and 520 nm, respectively.

[2] = test system: E. coli ATCC 25922; assay: Cytoplasmic membrane depolarization (DiSC3-5); format: cell-based, Escherichia coli; conditions: 4×MIC
Procedure: We also used E. coli cells and the membrane potential-sensitive cyanine dye 3,3′-dipropylthiadicarbocyanine iodide (DiSC3-5) to test the ability of PEP27 and PEP27-2 to depolarize Gram-negative bacterial membranes (FIG. 15B to FIG. 15E).
Depolarization of the cytoplasmic membrane by the peptides was measured using the membrane potential-sensitive dye DiSC3-5 (Merck KGaA, n=4 per condition) with intact E. coli cells as previously described. 66 Mid-log-phase E. coli ATCC 25922 cells were washed with 5 mM HEPES buffer containing 20 mM glucose and resuspended to an OD600 of 0.05 in 5 mM HEPES buffer containing 20 mM glucose and 0.1 M KCl. The cell suspension was incubated with 1 μM DiSC3-5 for 1 h. […] Fluorescence was measured at excitation and emission wavelengths of 622 and 670 nm, respectively.
When the bacterial cytoplasmic membrane is disrupted, the membrane potential dissipates E. coli, and DiSC3-5 is released into the culture medium, resulting in a fluorescence increase. After stabilization for 10 min by treatment with DiSC3-5, AMPs were added, and the plasma membrane potential of E. coli was confirmed by monitoring the change in fluorescence intensity for another 30 min.

[3] = test system: plasmid DNA (pRSETB); assay: Peptide-DNA binding by agarose gel electrophoresis; conditions: peptide/DNA ratios 0.25:1 to 4:1, 300 ng plasmid DNA
Procedure: Specifically, 300 ng of plasmid DNA (pRSETB) was reacted with the peptide by a relative ratio (reactions were performed at peptide/DNA ratios of DNA alone, 0.25:1, 0.5:1, 1:1, 1.5:1, 2:1, 3:1, 4:1, respectively) at 37° C. for 10 minutes, followed by conducting electrophoresis on a 1% agarose gel, staining the same with ethidium bromide (EtBr) and monitoring through UV.

[4] = test system: E. coli CCARM1229; format: cell-based, Escherichia coli; conditions: E. coli CCARM1229, antibiotics-tolerant; 37° C., 18 hours
[5] = test system: E. coli ATCC25922; format: cell-based, Escherichia coli; conditions: ATCC25922, 18 h
[6] = test system: E. coli ATCC 25922; assay: Time-kill kinetics; format: cell-based, Escherichia coli; conditions: at MIC, after 20 min of treatment
Procedure: Time-killing kinetics were analyzed for E. coli ATCC 25922 and S. aureus ATCC 25923 in the presence of PEP27-2 at their respective MICs. The bacterial cells were cultured overnight until they reached the exponential growth phase; they were then incubated at 37° C. for an additional 10 min from 0 min to 1 h. The total bacterial population was then stained with QUANTOM total cell staining dye, after which the stained cells were mixed with QUANTOM cell loading buffer and loaded into QUANTOM M50 Slides. The slides were centrifuged using the QUANTOM centrifuge to evenly distribute them throughout the counting chamber and ensure accurate cell counts. Intracellular fluorescence was detected using the QUANTOM Tx microbial cell counter, which captures and counts cells automatically (Logos Biosystems, Gyeonggi-do, South Korea).

[7] = test system: 11 types of strains (Staphylococcus aureus, Pseudomonas erujinosa); assay: MIC, summary over the strains of Table 7; format: cell-based
Procedure: In order to compare the antimicrobial activity of PEP27-2, which is the peptide having the most excellent antimicrobial activity among the peptides prepared by the method of above 1, with existing antibiotics, MIC concentrations of specific antibiotics were investigated with regard to the same gram-positive bacteria (Staphylococcus aureus) and the same gram-negative bacteria (Pseudomonas erujinosa) stains. Specifically, subject strains were prepared by the method of above 2, and were treated with the antibiotics, that is, meropenem, ceftazidime, ceftriaxone or vancomycin, respectively, followed by determining MICs of the antibiotics.

Compound	maximum calcein leakage [1] [%]	DiSC3-5 fluorescence intensity (membrane depolarization) [2]	binding to DNA (gel electrophoresis) [3]	Minimal inhibitory concentration [4] [µM]	Minimal inhibitory concentration [5] [µM]	decrease in E. coli cell viability [6] [%]	MIC range over the strains of Table 7 [7] [µM]
CC[C@H](C)[C@H](NC(=O)CN)C(=O)NCC(=O)N[C@@H](C)C(=O)N[C@H](C(=O)N[C@@H](CC(C)C)C(=O)N[C@@H](CCCCN)C(=O)N[C@H](C(=O)N[C@@H](CC(C)C)C(=O)N[C@H](C(=O)N[C@H](C(=O)NCC(=O)N[C@@H](CC(C)C)C(=O)N1CCC[C@H]1C(=O)N[C@@H](C)C(=O)N[C@@H](CC(C)C)C(=O)N[C@H](C(=O)N[C@@H](CO)C(=O)N[C@@H](Cc1c[nH]c2ccccc12)C(=O)N[C@H](C(=O)N[C@@H](CCCCN)C(=O)N[C@@H](CCCNC(=N)N)C(=O)N[C@@H](CCCCN)C(=O)N[C@@H](CCCNC(=N)N)C(=O)N[C@@H](CCC(N)=O)C(=O)N[C@@H](CCC(N)=O)C(N)=O)[C@@H](C)CC)[C@@H](C)CC)[C@@H](C)O)[C@@H](C)O)C(C)C)C(C)C [Melittin, reference compound]	100	~140	not bound to any DNA	–	–	–	–
CSCC[C@H](N)C(=O)N[C@@H](Cc1c[nH]c2ccccc12)C(=O)N[C@@H](CCCCN)C(=O)N[C@@H](Cc1c[nH]c2ccccc12)C(=O)N[C@@H](Cc1ccccc1)C(=O)N[C@@H](Cc1c[nH]cn1)C(=O)N[C@@H](CC(N)=O)C(=O)N[C@H](C(=O)N[C@@H](CC(C)C)C(=O)N[C@@H](CO)C(=O)N[C@@H](Cc1c[nH]c2ccccc12)C(=O)NCC(=O)N[C@@H](Cc1c[nH]c2ccccc12)C(=O)N[C@@H](CC(C)C)C(=O)N[C@@H](CC(C)C)C(=O)N[C@@H](C)C(=O)N[C@@H](CC(=O)O)C(=O)N[C@@H](CCCCN)C(=O)N[C@@H](CCCNC(=N)N)C(=O)N1CCC[C@H]1C(=O)N[C@@H](C)C(=O)N[C@@H](CCCNC(=N)N)C(=O)N[C@@H](CC(=O)O)C(=O)N[C@@H](Cc1ccc(O)cc1)C(=O)N[C@@H](CC(N)=O)C(=O)N[C@@H](CCCNC(=N)N)C(=O)N[C@@H](CCCCN)C(N)=O)C(C)C [PEP27-2] (H-MWKWFHNVLSWGWLLADKRPARDYNRK-NH2)	–	–	–	4 (≈ 13.9 µg/mL)	4 (≈ 13.9 µg/mL)	98.63	2 to 4
